In patent publication EP0189755A1, “Pharmaceutical composition” (F. HOFFMANN-LA ROCHE AG, priority 1985, dated 1986):

Legend:
[1] = system: P388 leukemia cells; assay: Antitumor effects against intraperitoneally implanted P388 leukemia in mice (increase in life span, survival, body weight); conditions: for dose ILS30: dose of 5'-DFUR or 5-FU giving ILS30; for dose ILS30 / dose ILSmax: GMP 100 mg/kg/day in the combinations, unit not given in Table 4; for dose ILSmax: dose of 5'-DFUR or 5-FU giving ILSmax
Experimental: BDF1 male mice weighing 21 to 23 g were used as experimental animals. P388 leukemia cells were implanted intraperitoneally into the mice. Seven days after the implantation, ascites were collected and diluted with saline to prepare the suspension containing 10^6 P388 leukemia cells in 0.05 ml. The mice were intraperitoneally implanted on day 0 with 10^6 P388 cells. Each group contained 6 mice. 5'-DFUR and GMP were dissolved in saline, alone or combined with each other. The test compounds were administered intraperitoneally from day 1 to day 5. The antitumor effects were evaluated by the increase in life span over control (ILS) calculated by the following formula: [formula] T: Mean survival time (days) in the test drug groups C: Mean survival time (days) in the control group administered intraperitoneally with saline alone
The safety of the drug was evaluated by the therapeutic ratio; the dose ILSmax / the dose ILS30.
In a manner analogous to that described in (1) above except that 5'-DFCR was used instead of 5'-DFUR, the antitumor effects thereof was tested as a referential example.

[2] = Acute toxicity; assay type: in vivo, male ICR mice
Experimental: Groups of 5 weeks old male ICR mice were treated intraperitoneally with 5'-DFUR and GMP at the dosage given in the- following Table 6. Each mice group contained 5 mice. Two weeks after, the number of died mice were counted.

[3] = 5'-DFCR 28 mg/kg/day, without GMP
[4] = 5'-DFCR 55 mg/kg/day, without GMP
[5] = 5'-DFCR 110 mg/kg/day, without GMP
[6] = 5'-DFCR 220 mg/kg/day, without GMP

Nc1nc2c(ncn2[C@@H]2O[C@H](COP(=O)(O)O)[C@@H](O)[C@H]2O)c(=O)[nH]1 [GMP, guanosine-5'-monophosphate]
ILS ([1]; GMP alone 100 mg/kg/day i.p. (5'-DFUR 0)): -3% | ILS ([1]; GMP alone 300 mg/kg/day i.p. (5'-DFUR 0)): 5% | ILS ([1]; GMP alone 500 mg/kg/day i.p. (5'-DFUR 0)): 8% | ILS ([1]; GMP alone 1000 mg/kg/day i.p. (5'-DFUR 0)): 1% | influence on ILS ([1]; GMP alone (Table 3)): no influence observed | Survival days (mean±SD) ([1]; nucleotide alone 100 mg/kg/day): 8.8 ± 0.8 days | T/C ([1]; nucleotide alone 100 mg/kg/day): 92% | number of died mice/number of tested mice ([2]; GMP 2000 mg/kg, 5'-DFUR 0, intraperitoneally, counted two weeks after): 0/5 | number of died mice/number of tested mice ([2]; GMP 4000 mg/kg, 5'-DFUR 0, intraperitoneally, counted two weeks after): 1/5

O=c1[nH]cc(F)c(=O)[nH]1 [5-FU, 5-fluorouracil]
dose ILS30 [1]: 0.75 | dose ILSmax [1]: 20

Nc1ncnc2c1ncn2[C@@H]1O[C@H](COP(=O)(O)O)[C@@H](O)[C@H]1O [AMP, adenosine-5'-monophosphate]
Survival days (mean±SD) ([1]; nucleotide alone 100 mg/kg/day): 9.5 ± 1.9 days | T/C ([1]; nucleotide alone 100 mg/kg/day): 99%

C[C@H]1O[C@@H](n2cc(F)c(=O)[nH]c2=O)[C@H](O)[C@@H]1O [5'-DFUR, 5'-deoxy-5-fluorouri-dine]
Survival days (mean±SD) ([1]; 5'-DFUR 250 mg/kg/day): 13.3 ± 0.8 days | T/C ([1]; 5'-DFUR 250 mg/kg/day): 139% | ILS ([1]; 5'-DFUR alone 2 mg/kg/day i.p., day 1 to day 5): 0% | ILS ([1]; 5'-DFUR alone 4 mg/kg/day i.p., day 1 to day 5): 1% | ILS ([1]; 5'-DFUR alone 8 mg/kg/day i.p., day 1 to day 5): 8% | ILS ([1]; 5'-DFUR alone 16 mg/kg/day i.p., day 1 to day 5): 15% | ILS ([1]; 5'-DFUR alone 32 mg/kg/day i.p., day 1 to day 5): 21% | ILS ([1]; 5'-DFUR alone 63 mg/kg/day i.p., day 1 to day 5): 21% | ILS ([1]; 5'-DFUR alone 125 mg/kg/day i.p., day 1 to day 5): 31% | ILS ([1]; 5'-DFUR alone 250 mg/kg/day i.p., day 1 to day 5): 48% | ILS ([1]; 5'-DFUR alone 500 mg/kg/day i.p., day 1 to day 5): 24% | dose ILS30 [1]: 125 | dose ILSmax [1]: 250 | ILSmax ([1]; dose series of 5'-DFUR i.p., GMP at 100 mg/kg/day in the combination group): 48% | number of died mice/number of tested mice ([2]; mouse, in vivo): 0/5

C[C@H]1O[C@@H](n2cc(F)c(N)nc2=O)[C@H](O)[C@@H]1O [5'-DFCR]
Survival days (mean±SD) [1, 3]: 10.7 ± 1.5 days | T/C [1, 3]: 111% | Survival days (mean±SD) [1, 4]: 10.0 ± 1.7 days | T/C [1, 4]: 104% | Survival days (mean±SD) [1, 5]: 10.3 ± 0.5 days | T/C [1, 5]: 107% | Survival days (mean±SD) [1, 6]: 12.0 ± 1.7 days | T/C [1, 6]: 125%
